The values below come from patent US7060273B2, “Methods for inhibiting HIV-1 infection” (priority 2001, dated 2006).

One experiment has as its system HIV. The conditions noted are these: human, in vivo; cited from earlier work.
Experiment [1] deals with fusion between HeLa-EnvJR-FL and PM1 cells. As for the experimental part: HIV-1 envelope-mediated fusion between HeLa-EnvJR-FL and PM1 cells was detected using a Resonance Energy Transfer (RET) assay.
HIV-1 inhibition data were analyzed according to the Combination Index method of Chou and Talay. The data are modeled according to the median-effect principle, which can be written f=1/[1+(K/c)^m] (1) where f is the fraction affected/inhibited, c is concentration, K is the concentration of agent required to produce the median effect, and m is an empirical coefficient describing the shape of the dose-response curve. Equation (1) is a generalized form of the equations describing Michaelis-Menton enzyme kinetics, Langmuir adsorption isotherms, and Henderson-Hasselbalch ionization equilibria, for which m=1 in all cases. In the present case, K is equal to the IC50 value. K and m are determined by curve-fitting the dose-response curves.
After the best-fit parameters for K and m are obtained for the experimental agents and their combination, Equation (1) is rearranged to allow for calculation of c for a given f.
All concentrations are those required to achieve a given degree of inhibition. Equation (2) is used when the molecules are mutually nonexclusive, i.e., have different sites of action. Since this is the likely scenario for inhibitors of HIV-1 attachment and gp41 fusion intermediates, Equation (2) was used for all Combination Index calculations. […] CI<1 indicates synergy, CI=1 indicates purely additive effects, and CI>1 indicates antagonism. In general, CI values are most relevant at the higher levels of inhibition that are required to achieve a measurable clinical benefit.

Regarding enfuvirtide, the “reduction of plasma HIV RNA levels” value in the experiment on HIV is given as no more than 2 logs. For the same substance, the “concentration of the agent contained in the combination giving 95% inhibition” value in experiment [1] (25:1 CD4-IgG2:T-20 mass ratio) came out at 0.044 µg/mL. Moreover, the “dose reduction by the combination” value in experiment [1] (95% inhibition, 25:1 mass ratio) is 5 fold. Further, the “K (equal to IC50), best-fit median effect parameter” value in experiment [1] (FIG. 8, combination 25:1 CD4-IgG2:T-20) stood at 0.017 µg/mL. Besides, the “concentration required for inhibition of viral entry by 95%” value in experiment [1] (agent used alone, or total of 25:1 mass ratio combination) is 0.21 µg/mL.
